Earlier results on 24 molecules are cited in patent US6761903B2, “Clear oil-containing pharmaceutical compositions containing a therapeutic agent” (Lipocine, Inc., priority 1999, dated 2004).

For the first data set the following is noted: as reported by the manufacturer of the commercial product, rough average or inventors' judgment.
In the case of Polyglyceryl-6 oleate, the HLB was 9.

For the molecule Polyglyceryl-6 pentaoleate, the HLB is less than 10.

Regarding Polyglyceryl-6 ricinoleate, the HLB is recorded as more than 8.

Polyglyceryl-10 decaisostearate: the HLB is less than 10.

On to Polyglyceryl-10 mono, dioleate, for which the HLB is reported as 11.

Regarding Polyglyceryl-10 oleate, the HLB was 14.

Consider Polyglyceryl-10 pentaoleate, for which the HLB is listed as 3.5.

As for Polyglyceryl-10 septaoleate, the HLB is 3.

Consider Polyglyceryl-10 tetraoleate, for which the HLB was 6.2.

In the case of Polyglyceryl-10 trioleate, the HLB was 7.

As for Polyglyceryl-101 decaoleate, the HLB is on record as 3.5.

For the molecule Propylene glycol dicaprylate/dicaprate, the HLB is more than 6.

Regarding Sorbitan monoisostearate, the HLB is 4.7.

With Sorbitan monooleate, the HLB was 4.3.

Consider Sorbitan monopalmitate, for which the HLB is listed as 6.7.

Turning to Sorbitan monostearate, the HLB is recorded as 4.7.

As for Sorbitan sesquistearate, the HLB is recorded as 4.2.

Turning to Sorbitan trioleate, the HLB was 4.3.

Turning to Sucrose dipalmitate, the HLB is 7.4.

With Sucrose distearate, the HLB was 3.

As to Sucrose monopalmitate, the HLB is on record as more than 10.

Settings in the next data set: not given
Regarding `CCCCCCCC/C=C\CCCCCCCC(=O)OCC(O)CO` (stereo not drawn) [glycerol monooleate], the solubility in water result is “practically water insoluble”.

The same data set, now with this note: water having a pH at about 7 and below.
For `C[C@H](CCC(=O)O)[C@H]1CC[C@H]2[C@@H]3[C@H](O)C[C@@H]4C[C@H](O)CC[C@]4(C)[C@H]3CC[C@]12C` [CDCA, chenodeoxycholic acid], the solubility in water result was “practically insoluble”.

Take `C[C@H](CCC(=O)O)[C@H]1CC[C@H]2[C@@H]3[C@@H](O)C[C@@H]4C[C@H](O)CC[C@]4(C)[C@H]3CC[C@]12C` [UDCA, ursodeoxycholic acid]: the solubility in water result was “practically insoluble”.
